In patent US9193733B2, “Piperidinylcyclobutyl substituted pyrrolopyridine and pyrrolopyrimidine derivatives as JAK inhibitors” (Incyte Corporation, priority 2012, dated 2015):

What was measured:
Type in all cases: biochemical
[1] = biological target: T1, human JAK2 (a.a. 828-1132) catalytic domain (Homo sapiens, UniProt O60674); assay: In vitro JAK kinase assay (HTRF, phosphorylation of a biotinylated peptide), JAK2; settings: 1 mM ATP
T1 construct: human JAK1 (a.a. 837-1142) and JAK2 (a.a. 828-1132); His tag (N); made in house; host or cells: insect cells (baculovirus)
T1 sequence (O60674 828-1132): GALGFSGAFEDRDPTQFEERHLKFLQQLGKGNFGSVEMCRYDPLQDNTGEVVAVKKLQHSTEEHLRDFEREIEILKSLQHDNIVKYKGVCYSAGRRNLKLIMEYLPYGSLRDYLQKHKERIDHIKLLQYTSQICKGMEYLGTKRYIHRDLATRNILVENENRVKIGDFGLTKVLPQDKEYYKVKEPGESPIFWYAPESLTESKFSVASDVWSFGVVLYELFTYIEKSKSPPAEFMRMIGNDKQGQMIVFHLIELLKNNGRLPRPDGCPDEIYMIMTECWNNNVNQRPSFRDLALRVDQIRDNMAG
Outline: (§1)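 His-tagged JAK1/JAK2 catalytic domains from baculovirus-infected insect cells phosphorylate 500 nM biotinylated peptide at 1 mM ATP in 50 mM Tris pH 7.8, 100 mM NaCl, 5 mM DTT, 0.01% BSA, 1 h at room temperature. EDTA-stopped; SA-APC/Eu-Py20 HTRF read after 40 min; IC50 determined.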

[2] = biological target: T2, human JAK1 (a.a. 837-1142) catalytic domain (Homo sapiens, UniProt P23458); assay: In vitro JAK kinase assay (HTRF, phosphorylation of a biotinylated peptide), JAK1; settings: 1 mM ATP
T2 construct: human JAK1 (a.a. 837-1142) and JAK2 (a.a. 828-1132); His tag (N); made in house; host or cells: insect cells (baculovirus)
T2 sequence (P23458 849-1154): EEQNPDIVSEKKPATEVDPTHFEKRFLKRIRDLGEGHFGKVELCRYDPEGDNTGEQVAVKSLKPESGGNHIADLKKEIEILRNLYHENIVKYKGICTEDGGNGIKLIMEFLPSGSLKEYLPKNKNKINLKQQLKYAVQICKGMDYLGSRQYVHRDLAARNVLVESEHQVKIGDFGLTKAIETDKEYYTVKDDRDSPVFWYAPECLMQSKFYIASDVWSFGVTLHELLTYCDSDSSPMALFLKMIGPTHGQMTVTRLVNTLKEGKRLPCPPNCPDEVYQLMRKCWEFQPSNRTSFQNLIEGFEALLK
Outline: as §1

[3] = system: human JAK1 (a.a. 837-1142) catalytic domain; assay: as above; settings: ratio of JAK2 IC50 to JAK1 IC50, 1 mM ATP
Outline: as §1

Compound: COCCNCc1cc(OC2CCN([C@H]3C[C@](CC#N)(n4cc(-c5ncnc6[nH]ccc56)cn4)C3)CC2)nc(C(F)(F)F)c1 [Example 3, {trans-3-(4-{[4-{[(2-methoxyethyl)amino]methyl}-6-(trifluoromethyl)pyridin-2-yl]oxy}piperidin-1-yl)-1-[4-(7H-pyrrolo[2,3-d]pyrimidin-4-yl)-1H-pyrazol-1-yl]cyclobutyl}acetonitrile]
- IC50 [1]: 20 to 150 nM
- IC50 [2]: < 20 nM
- JAK2/JAK1 [3]: >10

Compound: N#CC[C@]1(n2cc(-c3ncnc4[nH]ccc34)cn2)C[C@H](N2CCC(Oc3cc(Cn4cnnc4)cc(C(F)(F)F)n3)CC2)C1 [Example 24, [trans-1-[4-(7H-pyrrolo[2,3-d]pyrimidin-4-yl)-1H-pyrazol-1-yl]-3-(4-{[4-(4H-1,2,4-triazol-4-ylmethyl)-6-(trifluoromethyl)pyridin-2-yl]oxy}piperidin-1-yl)cyclobutyl]acetonitrile]
- IC50 [1]: 20 to 150 nM
- IC50 [2]: < 20 nM
- JAK2/JAK1 [3]: >10

Compound: N#CC[C@]1(n2cc(-c3ncnc4[nH]ccc34)cn2)C[C@H](N2CCC(Nc3cc(CN4CC5(COC5)C4)cc(C(F)(F)F)n3)CC2)C1 [Example 46, {trans-3-(4-{[4-(2-oxa-6-azaspiro[3.3]hept-6-ylmethyl)-6-(trifluoromethyl)pyridin-2-yl]amino}piperidin-1-yl)-1-[4-(7H-pyrrolo[2,3-d]pyrimidin-4-yl)-1H-pyrazol-1-yl]cyclobutyl}acetonitrile]
- IC50 [1]: 20 to 150 nM
- IC50 [2]: < 20 nM
- JAK2/JAK1 [3]: >10

Compound: CC1(C)CN(C(=O)c2cc(OC3CCN([C@H]4C[C@](CC#N)(n5cc(-c6ncnc7[nH]ccc67)cn5)C4)CC3)nc(C(F)(F)F)c2)C1 [Example 26, {trans-3-(4-{[4-[(3,3-dimethylazetidin-1-yl)carbonyl]-6-(trifluoromethyl)pyridin-2-yl]oxy}piperidin-1-yl)-1-[4-(7H-pyrrolo[2,3-d]pyrimidin-4-yl)-1H-pyrazol-1-yl]cyclobutyl}acetonitrile]
- IC50 [1]: 150 to 500 nM
- IC50 [2]: < 20 nM
- JAK2/JAK1 [3]: >10

Compound: N#CC[C@]1(n2cc(-c3ncnc4[nH]ccc34)cn2)C[C@H](N2CCC(Nc3cc(CO)cc(C(F)(F)F)n3)CC2)C1 [Example 31, {trans-3-(4-{[4-(hydroxymethyl)-6-(trifluoromethyl)pyridin-2-yl]amino}piperidin-1-yl)-1-[4-(7H-pyrrolo[2,3-d]pyrimidin-4-yl)-1H-pyrazol-1-yl]cyclobutyl}acetonitrile]
- IC50 [1]: 20 to 150 nM
- IC50 [2]: < 20 nM
- JAK2/JAK1 [3]: >10

Compound: N#CC[C@]1(n2cc(-c3ncnc4[nH]ccc34)cn2)C[C@H](N2CCC(Oc3cc(C4(N)COC4)cc(C(F)(F)F)n3)CC2)C1 [Example 50, {trans-3-(4-{[4-(3-aminooxetan-3-yl)-6-(trifluoromethyl)pyridin-2-yl]oxy}piperidin-1-yl)-1-[4-(7H-pyrrolo[2,3-d]pyrimidin-4-yl)-1H-pyrazol-1-yl]cyclobutyl}acetonitrile]
- IC50 [1]: 20 to 150 nM
- IC50 [2]: < 20 nM
- JAK2/JAK1 [3]: >10

Compound: CN(c1cc(CO)cc(C(F)(F)F)n1)C1CCN([C@H]2C[C@](CC#N)(n3cc(-c4ncnc5[nH]ccc45)cn3)C2)CC1 [Example 47, {trans-3-{4-[[4-(hydroxymethyl)-6-(trifluoromethyl)pyridin-2-yl](methyl)amino]piperidin-1-yl}-1-[4-(7H-pyrrolo[2,3-d]pyrimidin-4-yl)-1H-pyrazol-1-yl]cyclobutyl}acetonitrile]
- IC50 [1]: 150 to 500 nM
- IC50 [2]: < 20 nM
- JAK2/JAK1 [3]: >10
